Laboratory results published in patent publication US4940714A, “2-substituted carbonylimidazo[4,5-c]quinolines” (Shionogi & Co., Ltd., priority 1988, dated 1990).

Assays:
Benzodiazepine Receptor = experiment: Test on Binding to Benzodiazepine Receptor (inhibition of specific binding of tritium-labeled diazepam); parameters: species or system male Wistar rats (cerebral cortex); details: 2 nM tritium-labeled diazepam, 0° C., 60 minutes, rat cerebral cortex receptor preparation
Experimental: Test on Binding to Benzodiazepine Receptor
This test was carried out modifying partially a method of Mohler & Okada, Science, 198, 849-851 (1977). Receptor preparation was provided from the cerebral cortex of male Wistar rats (11-13 weeks age). Inhibitory action of the test compound on the specific binding of tritium-labeled diazepam to the receptor was evaluated as follows: 2 nM tritium-labeled diazepam and an aqueous solution of the test compound in 5 or 6 different concentrations were incubated with the receptor preparation at 0° C. for 60 minutes. The 50% inhibitory concentration (IC50) was measured by the concentration-response curve. In addition, the inhibitory constant (Ki) of the test compound was calculated by dissociation constant (Kd) and concentration (L) of the tritium-labeled diazepam.

[1] = test system: Pentylenetetrazole-Induced Convulsion; experiment: Potentiation of Pentylenetetrazole-Induced Convulsion (inverse agonist activity); assay type: in vivo; details: Mus musculus; intravenous injection; pentylenetetrazole 90 mg/kg subcutaneous; 2-hour observation; male mice; probit method; read-out: ED50 (dose required to produce tonic convulsion and death in 50% of the animals)
Experimental: Potentiation of Pentylenetetrazole-Induced Convulsion
(§1) Inverse agonist activity was evaluated in this Experiment. Pentylenetetrazole was subscutaneously administered male mice (a group of 8-16 male mice was employed in each test) at a dose of 90 mg/kg immediately after intravenous injection of the test compound. The dose (ED50) required to produce tonic convulsion and death in 50% of the aminals during subsequent 2-hour observation period was calculated by the probit method.

[2] = test system: Pentylenetetrazole-Induced Convulsion; experiment: Antagonism of Pentylenetetrazole-Induced Convulsion (agonistic activity); assay type: in vivo; details: Mus musculus; intravenous injection; pentylenetetrazole 125 mg/kg subcutaneous; 2-hour observation; male mice; probit method; read-out: ED50 (dose required to prevent tonic convulsion and death in 50% of the animals)
Experimental: Anatagonism of Pentylenetetrazole-Induced Convulsion
as §1, with “Agonistic” for “Inverse agonist”, “125” for “90”, “prevent” for “produce”, “animals” for “aminals”

learning and memory [3] = details: M. Sarter et al., TINS 11, 13 (1988); cited from earlier work
learning and memory [4] = details: M. Sarter et al., TINS 11, 13 (1988); cited from earlier work; remark: listed apart in the source

SMILES	Ki (Benzodiazepine Receptor) [nM]	other results
O=C(c1nc2cnc3ccccc3c2[nH]1)C1CC1 [Ic-1, 2-Cyclopropylcarbonyl-1H-imidazo[4,5-c]quinoline]	0.357	
CCC(=O)c1nc2cnc3ccccc3c2[nH]1 [Ic-4]	0.409	
CCCC(=O)c1nc2cnc3ccccc3c2[nH]1 [Ic-6]	0.432	ED50 [1]: 1 mg/kg
CCCCCCC(=O)c1nc2cnc3ccccc3c2[nH]1 [Ic-9]	6.11	ED50 [2]: 3.21 mg/kg
CC(C)C(=O)c1nc2cnc3ccccc3c2[nH]1 [Ic-14]	1.24	ED50 [1]: 0.2 mg/kg
CCC(C)C(=O)c1nc2cnc3ccccc3c2[nH]1 (stereo not shown) [Ic-18]	3.6	
O=C(c1nc2cnc3ccc(F)cc3c2[nH]1)C1CC1 [Ic-21]	0.5	
COc1ccc2c(c1)ncc1nc(C(=O)C3CC3)[nH]c12 [Ic-22]	1.9	ED50 [1]: 0.15 mg/kg
C/C=C/C(=O)c1nc2cnc3ccccc3c2[nH]1 [Ic-27]	13.1	ED50 [2]: 2.47 mg/kg
CSCCC(=O)c1nc2cnc3ccccc3c2[nH]1 [Ic-31]	1.5	
O=C(c1nc2cnc3ccccc3c2[nH]1)c1ccc(Cl)s1 [Ic-36, 2-[(5-Chlorothiophen-2-yl)carbonyl]-1H-imidazo[4,5-c]quinoline]		ED50 [2]: 0.46 mg/kg
O=C(c1nc2cnc3ccccc3c2[nH]1)c1ccccc1F [Ic-37]	2.21	
O=C(c1cccc(F)c1)c1nc2cnc3ccccc3c2[nH]1 [Ic-38]		ED50 [2]: 1.12 mg/kg
O=C(c1ccc(Cl)cc1)c1nc2cnc3ccccc3c2[nH]1 [Ic-41]	8.33	
CSc1ccc(C(=O)c2nc3cnc4ccccc4c3[nH]2)cc1 [Ic-45]	3.2	ED50 [2]: 0.88 mg/kg
O=C(c1cccnc1)c1nc2cnc3ccccc3c2[nH]1 [Ic-49]	1.8	
O=C(c1nc2cnc3ccccc3c2[nH]1)c1cccs1 [Ic-50]	0.819	
O=C(c1nc2cnc3ccccc3c2[nH]1)c1ccco1 [Ic-56]	1.07	
Cc1cc(C(=O)c2nc3cnc4ccccc4c3[nH]2)no1 [Ic-60]	0.373	ED50 [1]: 0.71 mg/kg
CCOC(=O)c1nc2cnc3ccccc3c2[nH]1 [Ic-64, 2-Ethoxycarbonyl-1H-imidazo[4,5-c]quinoline]		ED50 [1]: 0.31 mg/kg
CCNC(=O)c1nc2cnc3ccccc3c2[nH]1 [Ic-67]		ED50 [1]: 0.35 mg/kg
O=C(c1ccccc1)c1nc2cnc3ccccc3c2[nH]1 [Id-2]		ED50 [2]: 1.06 mg/kg
CN1C(=O)CN=C(c2ccccc2)c2cc(Cl)ccc21 [diazepam]		performance (learning and memory) in humans (learning and memory [3]): impairs such performance
COC(=O)c1cc2c(cn1)[nH]c1ccccc12 [methyl β-carbonline-3-carboxylate]		performance in several animal models of learning and memory (learning and memory [4]): enhances the performance
